Test results: ChEMBL document CHEMBL1773071, “Development of tricyclic hydroxy-1H-pyrrolopyridine-trione containing HIV-1 integrase inhibitors” (Bioorg Med Chem Lett, 2011)

Key:
[1] = molecular target: T1, Human immunodeficiency virus type 1 integrase (Human immunodeficiency virus 1, UniProt Q7ZJM1); experiment: Inhibition of HIV1 recombinant integrase strand transfer activity expressed in Escherichia coli after 30 mins using [32P]-labeled oligonucleotide as a substrate by densitometric analysis
[2] = molecular target: T1, Human immunodeficiency virus type 1 integrase; experiment: Inhibition of HIV1 recombinant integrase 3'-processing activity expressed in Escherichia coli after 30 mins using [32P]-labeled oligonucleotide as a substrate by densitometric analysis
[3] = molecular target: T1, Human immunodeficiency virus type 1 integrase; experiment: Inhibition of HIV1 recombinant integrase strand transfer activity expressed in Escherichia coli after 60 mins using [32P]-labeled oligonucleotide as a substrate by densitometric analysis in presence of cofactor magnesium
[4] = test system: Human immunodeficiency virus 1; experiment: Resistant fold, ratio of EC50 for HIV1 harboring integrase Y143R mutant to EC50 for HIV1 harboring wild-type integrase; assay type: functional
[5] = test system: HOS; experiment: Cytotoxicity against human HOS cells assessed as ATP level after 48 hrs by luciferase reporter assay; assay type: cell-based
[6] = test system: Human immunodeficiency virus 1; experiment: Resistant fold, ratio of EC50 for HIV1 harboring integrase G140S/Q148H mutant to EC50 for HIV1 harboring wild-type integrase; assay type: functional
[7] = molecular target: T1, Human immunodeficiency virus type 1 integrase; experiment: Inhibition of HIV1 recombinant integrase strand transfer activity expressed in Escherichia coli after 60 mins using [32P]-labeled oligonucleotide as a substrate by densitometric analysis in presence of cofactor manganese
[8] = test system: Human immunodeficiency virus 1; experiment: Antiviral activity against HIV1 harboring wild-type integrase infected in human HOS cells; assay type: functional, organism-based; conditions: Human immunodeficiency virus 1, HOS
[9] = test system: Human immunodeficiency virus 1; experiment: Resistant fold, ratio of EC50 for HIV1 harboring integrase N155H mutant to EC50 for HIV1 harboring wild-type integrase; assay type: functional
[10] = molecular target: T1, Human immunodeficiency virus type 1 integrase; experiment: Inhibition of HIV1 recombinant integrase 3'-processing activity expressed in Escherichia coli after 60 mins using [32P]-labeled oligonucleotide as a substrate by densitometric analysis in presence of cofactor magnesium
[11] = molecular target: T1, Human immunodeficiency virus type 1 integrase; experiment: Inhibition of HIV1 recombinant integrase 3'-processing activity expressed in Escherichia coli after 60 mins using [32P]-labeled oligonucleotide as a substrate by densitometric analysis in presence of cofactor manganese

T1 sequence (Q7ZJM1 whole entry): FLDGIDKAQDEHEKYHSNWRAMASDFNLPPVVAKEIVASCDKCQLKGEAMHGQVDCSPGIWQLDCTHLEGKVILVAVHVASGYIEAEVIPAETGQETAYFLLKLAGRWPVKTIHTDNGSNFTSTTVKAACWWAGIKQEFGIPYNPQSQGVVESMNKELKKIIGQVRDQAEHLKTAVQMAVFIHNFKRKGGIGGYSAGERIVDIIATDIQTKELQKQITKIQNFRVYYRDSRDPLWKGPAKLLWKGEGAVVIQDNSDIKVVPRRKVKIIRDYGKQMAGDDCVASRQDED

Row | SMILES | IC50 [1] | IC50 [2] | also measured
1 | O=C1c2c(c3n(c(=O)c2O)CCCCC3)C(=O)N1Cc1ccccc1 | > 111 µM | > 111 µM | –
2 | O=C1c2ccc(O)c(O)c2C(=O)N1Cc1ccc(F)cc1 | 5.3 µM | – | –
3 | O=C1c2c(c3n(c(=O)c2O)CCCCC3)C(=O)N1Cc1ccc(F)c(Cl)c1 | 6 µM | > 111 µM | –
4 | O=C1c2ccc(O)c(O)c2C(=O)N1Cc1cccc(Cl)c1F | 1.7 µM | – | –
5 | O=C1c2c(c3n(c(=O)c2O)CCCCC3)C(=O)N1Cc1ccc(F)c(F)c1 | 6.01 µM | > 111 µM | –
6 | O=C1c2c(c3n(c(=O)c2O)CCCCC3)C(=O)N1Cc1cccc2ccccc12 | 90.5 µM | > 111 µM | –
7 | O=C1c2c(c3n(c(=O)c2O)CCCC3)C(=O)N1Cc1ccc(F)c(Cl)c1 | 9.1 µM | > 111 µM | IC50 [3]: 9.1 µM; Ratio EC50 [4]: 4; CC50 [5]: 291 µM; Ratio EC50 [6]: 2; IC50 [7]: 1.2 µM; EC50 [8]: 61 µM; Ratio EC50 [9]: 3; IC50 [10]: > 111 µM; IC50 [11]: 28 µM
8 | Cc1nnc(C(=O)NC(C)(C)c2nc(C(=O)NCc3ccc(F)cc3)c(O)c(=O)n2C)o1 | – | – | EC50 [8]: 0.004 µM
9 | O=C1c2c(c3n(c(=O)c2O)CCCCC3)C(=O)N1Cc1ccc(F)cc1 | 10.4 µM | > 111 µM | –
10 | O=C1c2c(c3n(c(=O)c2O)CCCCCC3)C(=O)N1Cc1ccc(F)c(Cl)c1 | 5.4 µM | > 111 µM | –
11 | O=C1c2c(c3n(c(=O)c2O)CCC3)C(=O)N1Cc1ccc(F)c(Cl)c1 | 10.9 µM | > 111 µM | –
12 | O=C1c2ccc(O)c(O)c2C(=O)N1Cc1ccc(F)c(F)c1 | 0.14 µM | – | –
13 | O=C1c2c(c3n(c(=O)c2O)CCCCC3)C(=O)N1Cc1cccc(Cl)c1F | 9.2 µM | > 111 µM | –
